According to patent publication US6861409B2, “Growth hormone secretagogues” (Zentaris AG, priority 2000, dated 2005):
Square brackets hold non-standard residues; d marks the D form. Peptide text beside a SMILES is read from it. dTrp(2-Me) = Cc1[nH]c2ccccc2c1C[C@@H](N)C(=O)O

System: plasma GH concentrations
Test: Growth hormone releasing activity in the infant rat (plasma GH by RIA)
Format: in vivo, Sprague Dawley rats
Conditions: male 10-day-old rats, 300 μg/kg subcutaneously, plasma 15 min later
Protocol: Male 10-day-old Sprague Dawley rats, about 25 g body weight were used.
One hour before the experiments, pups were separated from their respective dams and were divided randomly into groups of eight each.
Pups were acutely challenged subcutaneously with 100 μl of solvent (DMSO, final dilution 1:300 in physiological saline), hexarelin (Tyr-Ala-His-D-Mrp-Ala-Trp-D-Phe-Lys-NH2, used as a reference drug), or new compounds (300 μg/kg) and killed by decapitation 15 min later.
Trunk blood was collected and centrifuged immediately. Plasma samples were stored at −20° C. until assayed for the determination of plasma GH concentrations.
Growth hormone concentrations in plasma were measured by RIA using materials provided by the National Institute of Diabetes, Digestive and Kidney Diseases (NIDDK) of the National Institute of Health U.S.A.
Values were expressed in terms of the NIDDK-rat-GH-RP-2 standard (potency 21 U/mg) as ng/ml of plasma.
The minimum detectable value of rat GH was about 1.0 ng/ml, and intraassay variability was about 6%.

With `NC1(C(=O)NC(Cc2c[nH]c3ccccc23)C(=O)NC(Cc2c[nH]c3ccccc23)NC=O)CCCCC1` (centres unmarked) [Example 56, H-Acc^6-(D)-Trp-(D)-gTrp-formyl] the GH (Table 9 test series) was 8.49 ± 0.40 ng/mL.
Compound `CCNC(=O)NC(Cc1c[nH]c2ccccc12)NC(=O)C(Cc1c[nH]c2ccccc12)NC(=O)C(C)(C)NC` (centres unmarked) [Example 59, N-Me-Aib-(D)-Trp-(D)-gTrp-C(O)NHCH2CH3] has a GH (Table 10 test series) of 179.53 ± 24.65 ng/mL.
For `NC1(C(=O)NC(Cc2c[nH]c3ccccc23)C(=O)NC(Cc2c[nH]c3ccccc23)NC=O)CCCC1` (centres unmarked) [Example 55, H-Acc^5-(D)-Trp-(D)-gTrp-formyl], the GH (Table 9 test series) was 11.46 ± 1.18 ng/mL.
Pip-D-Trp-D-gTrp-C(O)CH3 [Example 7] was tested, and the GH (Table 3 test series) was 53.1 ± 6.6 ng/mL.
`CNC(C)(C)C(=O)NC(Cc1c[nH]c2ccccc12)C(=O)NC(Cc1c[nH]c2ccccc12)NC=O` [Example 3, N-Me-Aib-D-Trp-D-gTrp-CHO] showed a GH (Table 2 test series) of 86.6 ± 12.6 ng/mL.
For `CC(C)(N)C(=O)NC(Cc1c[nH]c2ccccc12)C(=O)NC(Cc1c[nH]c2ccccc12)NC=O` (centres unmarked) [Example 13, H-Aib-(D)-Trp-gTrp-CHO], the GH (Table 1 test series) was 58 ± 6.3 ng/mL.
For `CC(C)(N)C(=O)NC(Cc1c[nH]c2ccccc12)C(=O)NC(Cc1c[nH]c2ccccc12)NC(=O)C1CCNCC1` [Example 22, Aib-D-Trp-gTrp-CO-piperidin-4-yl], the GH (Table 3 test series) was 153.6 ± 30.6 ng/mL.
Compound `CC(C)(N)C(=O)NC(Cc1c[nH]c2ccccc12)C(=O)NC(Cc1ccc2ccccc2c1)NC=O` [Example 47, H-Aib-D-Trp-g-D-2-Nal-formyl] has a GH (Table 5 test series) of 9.04 ± 04.03 ng/mL.
Pip-D-Trp-D-gTrp-CHO [Example 6] showed a GH (Table 3 test series) of 109.7 ± 10.1 ng/mL.
`NC1(C(=O)NC(Cc2c[nH]c3ccccc23)C(=O)NC(Cc2c[nH]c3ccccc23)NC=O)CC1` (centres unmarked) [Example 54, H-Acc^3-(D)-Trp-(D)-gTrp-formyl] was tested, and the GH (Table 9 test series) was 7.89 ± 3.20 ng/mL.
In the case of `CCC(=O)NC(Cc1c[nH]c2ccccc12)NC(=O)C(Cc1c[nH]c2ccccc12)NC(=O)C(C)(C)N` [Example 19, Aib-D-Trp-gTrp-CO—CH2—CH3], the GH (Table 3 test series) was 79.8 ± 22.4 ng/mL.
`CC(=O)NC(Cc1c[nH]c2ccccc12)NC(=O)C(Cc1c[nH]c2ccccc12)NC(=O)C1CCNCC1` [Example 9, Isonipecotyl-D-Trp-D-gTrp-C(O)CH3] gave a GH (Table 3 test series) of 61.2 ± 10.8 ng/mL.
“H-Aib-D-Trp-N-Me-D-gTip-C(O)CH3 [Example 41]” showed a GH (Table 4 test series) of 75.4 ± 15.0 ng/mL.
`CC(C)(N)C(=O)N[C@H](Cc1c[nH]c2ccccc12)C(=O)NC(Cc1cccc2ccccc12)NC=O` (some centres unmarked) [Example 46, H-Aib-(D)-Trp-g-(D)-1-Nal-formyl] was tested, and the GH (Table 5 test series) was 8.26 ± 01.09 ng/mL.
With `CC(C)(N)C(=O)NC(Cc1ccc2ccccc2c1)C(=O)NC(Cc1c[nH]c2ccccc12)NC=O` (centres unmarked) [Example 45, H-Aib-(D)-2-Nal-(D)-gTrp-formyl] the GH (Table 5 test series) was 13.91 ± 03.87 ng/mL.
`CC(C)(N)C(=O)NC(Cc1c[nH]c2ccccc12)C(=O)NC(CC1CNc2ccccc21)NC=O` (racemic) [Example 48, H-Aib-(D)-Trp-(D)-3(R/S)-Dht-formyl] was tested, and the GH (Table 6 test series) was 17.49 ± 2.40 ng/mL.
With `CCNC(=O)NC(Cc1c[nH]c2ccccc12)NC(=O)C(Cc1c[nH]c2ccccc12)NC(=O)C(C)(C)N` (centres unmarked) [Example 58, H-Aib-(D)-Trp-(D)-gTrp-C(O)NHCH2CH3] the GH (Table 10 test series) was 376.48 ± 43.24 ng/mL.
In the case of `CNC(C)(C)C(=O)N[C@H](Cc1c[nH]c2ccccc12)C(=O)N(C)[C@H](Cc1c[nH]c2ccccc12)NC(C)=O` [Example 40, N-Me-Aib-D-Trp-N-Me-D-gTrp-C(O)CH3], the GH (Table 4 test series) was 188.2 ± 28.5 ng/mL.
Work on “H-Aib-(D)-1-Nal-(D)-gTrp-formyl [Example 44]” yielded a GH (Table 5 test series) of 15.04 ± 03.30 ng/mL.
Work on `CC(C)(N)C(=O)NC(Cc1ccc2ccccc2c1)C(=O)NC(Cc1ccc2ccccc2c1)NC=O` (centres unmarked) [Example 43, H-Aib-(D)-2-Nal-g-(D)-2-Nal-formyl] yielded a GH (Table 5 test series) of 37.33 ± 19.74 ng/mL.
`CC(C)(N)C(=O)NC(C)(Cc1c[nH]c2ccccc12)C(=O)NC(Cc1c[nH]c2ccccc12)NC=O` [Example 60, H-Aib-(R)—Me-Trp-(D)-gTrp-formyl] showed a GH (Table 8 test series) of 21.02 ± 3.43 ng/mL.
For `CNC(C)(C)C(=O)NC(Cc1c[nH]c2ccccc12)C(=O)NC(Cc1c[nH]c2ccccc12)NC(=O)C1CCNCC1` [Example 39, N-Me-Aib-D-Trp-D-gTrp-Isonipecotyl], the GH (Table 4 test series) was 97.1 ± 21.0 ng/mL.
Compound `Cc1[nH]c2ccccc2c1C[C@@H](NC(=O)[C@@H](N)Cc1cnc[nH]1)C(=O)N[C@@H](C)C(=O)N[C@@H](Cc1c[nH]c2ccccc12)C(=O)N[C@H](Cc1ccccc1)C(=O)N[C@@H](CCCCN)C(N)=O` [HEXARELIN, Tyr-Ala-His-D-Mrp-Ala-Trp-D-Phe-Lys-NH2, reference compound] (H-H[dTrp(2-Me)]AW[dF]K-NH2) has a GH (Table 1 test series) of 202 ± 32.7 ng/mL, a GH (Table 2 test series) of 134.5 ± 27.2 ng/mL and a GH (Table 3 test series) of 114.7 ± 8.4 ng/mL. For the same compound, the GH (Table 4 test series) was 114.5 ± 12.9 ng/mL, the GH (Table 5 test series) was 276.01 ± 23.5 ng/mL and the GH (Table 6 test series) was 91.61 ± 4.09 ng/mL. It also gave a GH (Table 7 test series) of 172.5 ± 38.53 ng/mL, a GH (Table 8 test series) of 172.5 ± 38.53 ng/mL and a GH (Table 9 test series) of 89.91 ± 3.04 ng/mL. It also gave a GH (Table 10 test series) of 172.5 ± 38.53 ng/mL.
In the case of `CNC(C)(C)C(=O)N[C@H](Cc1c[nH]c2ccccc12)C(=O)N[C@H](Cc1c[nH]c2ccccc12)NC(C)=O` [Example 5, N-Me-Aib-D-Trp-D-gTrp-C(O)CH3], the GH (Table 2 test series) was 175.5 ± 37.2 ng/mL.
With `CNC(C)(C)C(=O)NC(Cc1c[nH]c2ccccc12)C(=O)NC(CC1CNc2ccccc21)NC(C)=O` (racemic) [Example 50, N(Me)-Aib-(D)-Trp-(D)-3(R/S)-gDht-acetyl] the GH (Table 6 test series) was 11.17 ± 1.35 ng/mL.
Compound `CC(=O)NC(Cc1c[nH]c2ccccc12)NC(=O)C(Cc1c[nH]c2ccccc12)NC(=O)C(C)(C)N` [Example 4, H-Aib-D-Trp-D-gTrp-C(O)CH3] has a GH (Table 2 test series) of 104.7 ± 13.5 ng/mL.
`CCCC(N)(CCC)C(=O)NC(Cc1c[nH]c2ccccc12)C(=O)NC(Cc1c[nH]c2ccccc12)NC=O` (centres unmarked) [Example 57, H-Dpg-(D)-Trp-(D)-gTrp-formyl] was tested, and the GH (Table 9 test series) was 18.38 ± 2.88 ng/mL.
With `CNC(C)(C)C(=O)NC(Cc1c[nH]c2ccccc12)C(=O)NC(C)(Cc1c[nH]c2ccccc12)NC(C)=O` [Example 62, H-Me-Aib-(D)-Trp-(R)-Me-gTrp-acetyl] the GH (Table 8 test series) was 171.78 ± 10.32 ng/mL.
`CC(C)(N)C(=O)NC(Cc1cccc2ccccc12)C(=O)NC(Cc1cccc2ccccc12)NC=O` (centres unmarked) [Example 42, H-Aib-(D)-1-Nal-g-(D)-1-Nal-formyl] showed a GH (Table 5 test series) of 25.05 ± 06.00 ng/mL.
`CC(=O)NC(Cc1c[nH]c2ccccc12)NC(=O)C(Cc1c[nH]c2ccccc12)NC(=O)C(C)(C)N(C)C` (centres unmarked) [Example 53, N(Me)2-Aib-(D)-Trp-(D)-gTrp-acetyl] gave a GH (Table 7 test series) of 26.80 ± 5.64 ng/mL.
`CNC(C)(C)C(=O)NC(CC1CNc2ccccc21)C(=O)NC(Cc1c[nH]c2ccccc12)NC(C)=O` (racemic) [Example 51, N(Me)-Aib-(D)-3(R/S)-Dht-(D)-gTrp-acetyl] showed a GH (Table 6 test series) of 19.38 ± 4.16 ng/mL.
For `CN(C)C(C)(C)C(=O)NC(Cc1c[nH]c2ccccc12)C(=O)NC(Cc1c[nH]c2ccccc12)NC=O` (centres unmarked) [Example 52, N(Me)2-Aib-(D)-Trp-(D)-gTrp-formyl], the GH (Table 7 test series) was 121.43 ± 29 ng/mL.
`CC(Cc1c[nH]c2ccccc12)(NC=O)NC(=O)C(Cc1c[nH]c2ccccc12)NC(=O)C(C)(C)N` [Example 61, H-Aib-(D)-Trp-(R)-Me-gTrp-formyl] gave a GH (Table 8 test series) of 152.28 ± 43.76 ng/mL.
Work on `O=CNC(Cc1c[nH]c2ccccc12)NC(=O)C(Cc1c[nH]c2ccccc12)NC(=O)C1CCNCC1` [Example 8, Isonipecotyl-D-Trp-D-gTrp-CHO] yielded a GH (Table 3 test series) of 94.2 ± 8.6 ng/mL.
“H-Aib-(D)-3(R/S)-Dht-g-(D)-Trp-formyl [Example 49]” was tested, and the GH (Table 6 test series) was 24.35 ± 4.85 ng/mL.
